Data taken from patent publication US8084430B2, “ENT-kaurene diterpene compound and its derivatives, their preparation and their use” (Zhengzhou University, priority 2006, dated 2011).
Converted amounts (≈) assume the structure as drawn. “Also recorded” adds a separate entry of the source.

Key:
[1] = tested on: Human esophageal carcinoma Ec109 cells; assay: MTT activity against esophageal carcinoma Ec109 cells; format: cell-based
Protocol: Human esophageal carcinoma Ec109 cells were taken as target cells (Henan Institute of Medical Sciences), which were cultured in RPMI1640 medium (GIBCO) with 10% fetal bovine serum (TBD) at 37° C., in 5% CO2. The cells in logarithmic growth phase were inoculated in a 96-well plate, each well containing 6×10^3 cells. After 24 hours culture, the Jiyuan oridonin A (the compound obtained in example 1), derivative 1 and derivative 2 in different concentrations were added. After continuous 48 hours culture, the medical solution was removed carefully by absorption, followed by washing with RPMI 1640 medium without fetal bovine serum 3 times. 200 μL of medium with 0.2 mg/mL MTT were added in each well and incubated at 37° C. for 4 hours. The supernatant was removed and 200 μL of DMSO was added. After 10 min of shaking, the colorimetric method was used to determine the OD value of the control group and sample groups by an enzyme-labeling instrument with a detection wavelength of 570 nm, and a reference wavelength of 450 nm. The inhibition rate against cells of drugs in different concentrations was calculated and hemi-inhibitory concentration IC50 (μg/mL) was calculated based on cell inhibition curve.

[2] = tested on: α-glucosidase; assay: Inhibitory activity against glycosidase (α-glucosidase); format: biochemical, baker's yeast
Protocol: (§1) After keeping at 37° C. for 40 min, the reaction substrate, p-nitrophenyl glucoside (2.5 mM, 20 μl), was added in each well, and kept at 37° C. for 5 min. The reaction was terminated by addition of buffer, 0.1 M Na2CO3 100 μl, and the OD value was determined at 405 nm by colorimetric method. 0.067M phosphate buffer containing 10% DMSO was used instead of the compounds in negative control group. Inhibition rate=(1−OD value of experimental group/OD value of negative control group)×100%, the IC50 value was calculated by drawing.

[3] = tested on: β-glucosidase; assay: Inhibitory activity against glycosidase (β-glucosidase); format: biochemical, baker's yeast
Protocol: as §1

IC50 ([1]; Homo sapiens, ECa-109, Ec109 cells, 48 hours culture, MTT): 4.52 µg/mL (≈ 13 µM)
Inhibitory activity against α-glucosidase ([2]; compound concentration of 1 mM): 26.3
inhibitory activity against α-glucosidase in vitro (conclusion in words) ([2]; in vitro): certain inhibitory activity
Inhibitory activity against β-glucosidase ([3]; compound concentration of 1 mM): 25.0
inhibitory activity against β-glucosidase in vitro (conclusion in words) ([3]; in vitro): certain inhibitory activity
SMILES: C=C1C(=O)C23C([C@@H](O)CC1[C@H]2O)[C@]12CCCC(C)(C)C1C[C@H]3OC2O (stereo partly drawn) [Jiyuan oridonin A]
cytotoxic activity against Ec109 cell (conclusion in words) ([1]; Ec109 cell): higher cytotoxic activity; also recorded: highest activity
